In patent publication US20170008888A1 (KYORIN PHARMACEUTICAL CO., LTD., priority 2014, published 2017) one finds EC50, inhibition and IC50 data, which are given here for 37 compounds.

The subject of test [1] is human PBMCs. Nature of the test: Human PBMC TNF-α response to endotoxin (ELISA). The format is cell-based. The conditions noted are these: 0.1 μg/ml LPS 16 h, read-out: EC50 for the inhibition of the human PBMC TNF-α response to endotoxin, ave. ± S.D. The method in brief:
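PBMCs at 2e6 cells/ml in RPMI 1640 with 10% charcoal-dextran-treated FBS were pre-treated 1 h at 37 °C with compound (4-point 1:5 dilution from 10 μM). Stimulation with 0.1 μg/ml E. coli 0111:B4 LPS for 16 h; TNF-α measured by ELISA (A450) in 25-fold diluted supernatant.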
In general terms: In an ELISA, binding on a coated surface is turned into a signal by an enzyme label.

The target in test [2] is T1, BRD4 bromodomain domain I [BRD4(1)] (Homo sapiens, UniProt O60885).
T1 construct: BRD4 bromodomain domain I [BRD4(1)]; purchased Cayman Chemicals
Nature of the test: BRD4 bromodomain domain 1 inhibition assay (TR-FRET). It is filed as binding. The conditions noted are these: for inhibition at 10 µM: screening concentration 10 μM. The method in brief: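 0.5% DMSO, in triplicate, using Cayman BRD4(1) TR-FRET protocol with slight modification. 670/620 nm ratio normalized to 10 μM JQ1, with DMSO control set as 0% inhibition.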
For orientation: Time-resolved FRET reads energy transfer from a long-lived donor to a nearby acceptor.

The target in test [3] is T2, recombinant human ERK5 catalytic domain (Homo sapiens, UniProt Q13164).
T2 construct: Recombinant human ERK5 catalytic domain radiometric assays; purchased Reaction Biology, Corp (Malvern, Pa.), which ran the assay as a service
T2 sequence (Q13164 55-347 limits assumed): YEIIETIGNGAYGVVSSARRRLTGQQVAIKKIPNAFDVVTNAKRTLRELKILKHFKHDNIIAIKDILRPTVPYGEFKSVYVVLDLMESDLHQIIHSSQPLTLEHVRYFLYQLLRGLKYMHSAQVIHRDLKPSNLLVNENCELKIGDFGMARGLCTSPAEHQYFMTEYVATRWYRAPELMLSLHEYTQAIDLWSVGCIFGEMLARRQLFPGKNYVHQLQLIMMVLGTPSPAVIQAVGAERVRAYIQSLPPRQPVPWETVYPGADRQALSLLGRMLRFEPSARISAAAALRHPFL
Nature of the test: Recombinant human ERK5 radiometric (HotSpot) assay. It is filed as biochemical. The conditions noted are these: 10 μM ATP, 20 μM myelin basic protein substrate; read-out: rhERK5 IC50. The procedure: In this example, potency of the compounds in recombinant human ERK5 was assayed.
Recombinant human ERK5 catalytic domain radiometric assays were performed by Reaction Biology, Corp (Malvern, Pa.). The HotSpot radiometric assay is based on conventional filter-binding assays (Nature Biotechnology (2011) 29: 1039-1045). Compounds were tested at 20 μM down by ⅓ in a 10 point serial dilution series. Briefly, [γ-33P]-ATP was used as the tracer along with 10 μM cold ATP to label ERK5 in the presence of 20 μM myelin basic protein substrate.

Consider `CCOc1cc(C(=O)N2CCN[C@@H](C)C2)ccc1Nc1cc2c(cn1)N(C)C(=O)c1ccccc1N2C` [Compound T25], for which, in test [1], the EC50 (in general, the midpoint of the concentration-response curve) came out at 480 nM. Further, the inhibition (as a rule, the drop in the measured response relative to a control, in per cent) at 10 µM in test [2] was above 85%. The IC50 (usually the concentration at which inhibition is half-maximal) in test [3] is below 20 nM.
Regarding `CCOc1cc(C(C)N2CCCC2)ccc1Nc1cc2c(cn1)N(C)C(=O)c1ccccc1N2C` (centres unmarked) [Compound T26], the EC50 in test [1] stood at 410 nM. The inhibition at 10 µM in test [2] is above 85%. The IC50 in test [3] was below 20 nM.
In the same order, the values of `CCOc1cc(C(C)N2CC[C@@H](O)C2)ccc1Nc1cc2c(cn1)N(C)C(=O)c1ccccc1N2C` (some centres unmarked) [Compound T27] are 370 nM, above 85% and below 20 nM.
Take `CCOc1cc(C(=O)N2CCN[C@H](C)C2)ccc1Nc1cc2c(cn1)N(C)C(=O)c1ccccc1N2C` [Compound T29]: the EC50 in test [1] worked out at 350 nM. The inhibition at 10 µM in test [2] was above 85%. Further, in test [3], the half-maximal inhibitory concentration (IC50) is below 20 nM.
As to `CCOc1cc(C(=O)N2CCNC(C)CC2)ccc1Nc1cc2c(cn1)N(C)C(=O)c1ccccc1N2C` (centres unmarked) [Compound T46], in test [1], the EC50 turned out to be 600 nM. The IC50 in test [3] was below 20 nM.
The corresponding values for `CCOc1cc(C(=O)N2CCC(N3CCN[C@H](C)C3)CC2)ccc1Nc1cc2c(cn1)N(C)C(=O)c1ccccc1N2C` [Compound T51] are 740 nM and 20 to 50 nM.
Take `CCOc1cc(C(=O)N2CCC(N3CCN[C@@H](C)C3)CC2)ccc1Nc1cc2c(cn1)N(C)C(=O)c1ccccc1N2C` [Compound T52]: in test [1], the EC50 came out at 1080 nM. In addition, in test [3], the IC50 was in the range of 20 to 50 nM.
Consider `CCOc1cc(C(=O)N2CCC[C@H](N3CCCC3)C2)ccc1Nc1cc2c(cn1)N(C)C(=O)c1ccccc1N2C` [Compound T53], for which the EC50 in test [1] turned out to be 890 nM. Besides, in test [3], the IC50 was 50 to 200 nM.
Regarding `CCOc1cc(C(=O)N2CC[C@@H](N(C)CCO)C2)ccc1Nc1cc2c(cn1)N(C)C(=O)c1ccccc1N2C` [Compound T55], the EC50 in test [1] turned out to be 840 nM. Besides, the half-inhibitory concentration (IC50) in test [3] was 20 to 50 nM.
The corresponding values for `CCOc1cc(C(=O)N2CCC[C@@H](N3CCCC3)C2)ccc1Nc1cc2c(cn1)N(C)C(=O)c1ccccc1N2C` [Compound T57] are 650 nM and 50 to 200 nM.
The corresponding values for `CCOc1cc(C(=O)N2CC[C@@H](N3CCNCC3)C2)ccc1Nc1cc2c(cn1)N(C)C(=O)c1ccccc1N2C` [Compound T58] are 1040 nM and 20 to 50 nM.
For `CCOc1cc(C(=O)N[C@H]2CC[C@H](O)CC2)ccc1Nc1cc2c(cn1)N(C)C(=O)c1ccccc1O2` [Compound T89], the half-maximal effective concentration (EC50) in test [1] turned out to be 1720 ± 1510 nM. In addition, the IC50 was above 5000 nM in test [2] and 50 to 200 nM in test [3].
As to `CN1C(=O)c2cccc(F)c2Oc2cc(N[C@H]3CC[C@H](O)CC3)ncc21` [Compound T93], the half-maximal effective concentration (EC50) in test [1] is 1720 ± 1340 nM. In addition, the figures for the IC50 in test [2] and in test [3] were above 5000 nM and above 200 nM, respectively.
`CN1C(=O)c2cccc(Cl)c2Oc2cc(N[C@H]3CC[C@H](O)CC3)ncc21` [Compound T94]: in test [1], the EC50 was 1170 ± 1120 nM. The IC50 in test [2] was above 5000 nM; in test [3], above 200 nM.
Turning to `Cc1cccc2c1Oc1cc(N[C@H]3CC[C@H](O)CC3)ncc1N(C)C2=O` [Compound T96], the EC50 in test [1] came to 1100 ± 860 nM. The half-inhibitory concentration (IC50) in test [2] was 2000 to 5000 nM; in test [3] it was above 200 nM.
With `CCOc1cc(C(=O)N2CCN(C3CCN(C)CC3)CC2)ccc1Nc1cc2c(cn1)N(C)C(=O)c1ccccc1S2` [Compound T99], the EC50 in test [1] is 3220 ± 2750 nM. Further, the figures for the IC50 in test [2] and in test [3] were above 5000 nM and 50 to 200 nM, respectively.
In the same order, the values of `CCOc1cc(C(=O)N2CCN(C3CCN(C)CC3)CC2)ccc1Nc1cc2c(cn1)N(C)C(=O)c1cccc(F)c1O2` [Compound T103] are 1230 ± 1310 nM, above 5000 nM and 50 to 200 nM.
For the compound `CCOc1cc(C(=O)N2CCN(C3CCN(C)CC3)CC2)ccc1Nc1cc2c(cn1)N(C)C(=O)c1cccc(Cl)c1O2` [Compound T104], the EC50 in test [1] is 510 ± 240 nM. In addition, the figures for the IC50 in test [2] and in test [3] were 2000 to 5000 nM and 50 to 200 nM, respectively.
In the same order, the values of `CCOc1cc(C(=O)N2CCN(C3CCN(C)CC3)CC2)ccc1Nc1cc2c(cn1)N(C)C(=O)c1cccc(OC)c1O2` [Compound T105] are 430 ± 280 nM, below 2000 nM and 50 to 200 nM.
In the same order, the values of `CCOc1cc(C(=O)N2CCN(C3CCN(C)CC3)CC2)ccc1Nc1cc2c(cn1)N(C)C(=O)c1cccc(C)c1O2` [Compound T106] are 270 ± 170 nM, below 2000 nM and 50 to 200 nM.
The corresponding values for `CCOc1cc(C(=O)N2CCN(C3CCN(C)CC3)CC2)ccc1Nc1cc2c(cn1)N(C)C(=O)c1c(F)ccc(F)c1O2` [Compound T107] are 300 ± 250 nM, below 2000 nM and 20 to 50 nM.
`CCO[C@H]1CC[C@H](Nc2cc3c(cn2)N(C)C(=O)c2ccccc2N3C)CC1` [Compound T110]: the EC50 in test [1] was found to be 2740 ± 1870 nM. For the same compound, the IC50 in test [2] is above 5000 nM; in test [3], 50 to 200 nM.
For the compound `CCOC1CCCC[C@H]1Nc1cc2c(cn1)N(C)C(=O)c1ccccc1N2C` (some centres unmarked) [Compound T113], in test [1], the EC50 is 2950 ± 2170 nM. Besides, the IC50 in test [2] is above 5000 nM; in test [3] it was above 200 nM.
The corresponding values for `CN1C(=O)c2ccccc2N(C)c2cc(N[C@H]3CC[C@@H](O)CC3)ncc21` [Compound T114] are 3070 ± 3350 nM, above 5000 nM and above 200 nM.
`CN1C(=O)c2ccccc2Sc2cc(N[C@H]3CC[C@H](O)CC3)ncc21` [Compound T116]: the EC50 in test [1] amounted to 1660 ± 1530 nM. Further, the IC50 in test [2] is above 5000 nM; in test [3] it was above 200 nM.
The corresponding values for `CN1C(=O)c2ccccc2Oc2cc(N[C@H]3CC[C@H](O)CC3)ncc21` [Compound T117] are 2700 ± 2720 nM, above 5000 nM and above 200 nM.
`CN1C(=O)c2cccc(F)c2N(C)c2cc(N[C@H]3CC[C@H](O)CC3)ncc21` [Compound T118]: the EC50 in test [1] turned out to be 2430 ± 1780 nM. Further, the IC50 in test [2] is above 5000 nM; in test [3] it was above 200 nM.
The corresponding values for `CN1C(=O)c2c(F)cccc2N(C)c2cc(N[C@H]3CC[C@H](O)CC3)ncc21` [Compound T119] are 980 ± 930 nM, below 2000 nM and 50 to 200 nM.
In the same order, the values of `CN1C(=O)c2cccc(Cl)c2N(C)c2cc(N[C@H]3CC[C@H](O)CC3)ncc21` [Compound T120] are 2390 ± 2110 nM, above 5000 nM and above 200 nM.
On to `COc1cccc2c1N(C)c1cc(N[C@H]3CC[C@H](O)CC3)ncc1N(C)C2=O` [Compound T122], for which, in test [1], the EC50 stood at 3490 ± 3000 nM. In addition, the results for the IC50 in test [2] and in test [3] were above 5000 nM and 50 to 200 nM, respectively.
The corresponding values for `CCOc1cc(C(=O)N2CCN(C3CCN(C)CC3)CC2)ccc1Nc1cc2c(cn1)N(C)C(=O)c1c(F)cccc1N2C` [Compound T124] are 310 ± 220 nM, below 2000 nM and 20 to 50 nM.
Turning to `CCOc1cc(C(=O)N2CCN(C3CCN(C)CC3)CC2)ccc1Nc1cc2c(cn1)N(C)C(=O)c1cccc(F)c1N2C` [Compound T125], in test [1], the EC50 was 790 ± 200 nM. Also, the IC50 in test [2] was 2000 to 5000 nM; in test [3] it was 50 to 200 nM.
The corresponding values for `CCOc1cc(C(=O)N2CCN(C3CCN(C)CC3)CC2)ccc1Nc1cc2c(cn1)N(C)C(=O)c1cccc(Cl)c1N2C` [Compound T126] are 970 ± 830 nM, above 5000 nM and 50 to 200 nM.
As to `CN1C(=O)c2ccccc2N(C)c2cc(N[C@H]3CC[C@H](NS(N)(=O)=O)CC3)ncc21` [Compound T128], the EC50 in test [1] amounted to 2510 ± 1470 nM. Also, the IC50 in test [2] is 2000 to 5000 nM; in test [3] it was 50 to 200 nM.
As for `CN1C(=O)c2ccccc2N(C)c2cc(N[C@H]3CC[C@H](NS(=O)(=O)C4CC4)CC3)ncc21` [Compound T129], the EC50 in test [1] was found to be 1790 ± 1440 nM. The IC50 in test [2] was in the range of 2000 to 5000 nM; in test [3] it was 50 to 200 nM.
`CN1C(=O)c2ccccc2N(C)c2cc(N[C@H]3CC[C@H](N4CCCS4(=O)=O)CC3)ncc21` [Compound T136]: the EC50 in test [1] was determined as 2030 ± 1910 nM. Moreover, the IC50 in test [2] is above 5000 nM; in test [3], 50 to 200 nM.
In the same order, the values of `C[C@H]1C[C@H](Nc2cc3c(cn2)N(C)C(=O)c2ccccc2N3C)CC[C@H]1O` [Compound T137] are 1110 ± 990 nM, above 5000 nM and 50 to 200 nM.
